Source: ChEMBL document CHEMBL1156491, “Unexpected inhibition of peptidoglycan LD-transpeptidase from Enterococcus faecium by the beta-lactam imipenem” (J Biol Chem, 2007)
Values after ≈ are worked out from the molar mass of the structure shown. Active and inactive are the calls of the source. The calls are words filed in the database; no cut-off is given here.

Columns and labels:
Enterococcus faecium [1] = assay: Antimicrobial activity against Enterococcus faecium D344S by agar dilution method after 48 hrs; format: functional
Enterococcus faecium [2] = assay: Antimicrobial activity against Enterococcus faecium M512 by agar dilution method after 48 hrs; format: functional; details: M512, 48 h
[3] = Inhibition of Enterococcus faecium LD-transpeptidase assessed by formation of Ac2-L-Lys-D-[14C]Ala from Ac2-L-Lys-D-Ala and D-[14C]Ala
Enterococcus faecium [4] = assay: Inhibition of Enterococcus faecium M512 PBP5fm transpeptidase activity assessed as lactoyl tripeptide level; parameters: scale not given: the % may be the effect or the level left
Enterococcus faecium [5] = assay: Inhibition of Enterococcus faecium M512 PBP5fm transpeptidase activity assessed as lactoyl tetra-peptide level; parameters: scale not given: the % may be the effect or the level left
Enterococcus faecium [6] = assay: Inhibition of Enterococcus faecium M512 PBP5fm transpeptidase activity assessed as lactoyl tri-aspartate-peptide level; parameters: scale not given: the % may be the effect or the level left
Enterococcus faecium [7] = assay: Inhibition of Enterococcus faecium M512 PBP5fm transpeptidase activity assessed as lactoyl penta-peptide level; parameters: scale not given: the % may be the effect or the level left
Enterococcus faecium [8] = assay: Inhibition of Enterococcus faecium M512 PBP5fm transpeptidase activity assessed as lactoyl tetra-aspartate-peptide level; parameters: scale not given: the % may be the effect or the level left
Enterococcus faecium [9] = assay: Inhibition of Enterococcus faecium M512 PBP5fm transpeptidase activity assessed as lactoyl penta-aspartate-peptide level; parameters: scale not given: the % may be the effect or the level left
Enterococcus faecium [10] = assay: Inhibition of Enterococcus faecium M512 […] transpeptidase activity assessed as tetra-aspartate-tri multimer containing D-Ala4 to D-Asp-L-Lys3 cross links at 128 ug/ml by mass spectrometry; parameters: scale not given: the % may be the effect or the level left
Enterococcus faecium [11] = assay: Inhibition of Enterococcus faecium M512 PBP5fm transpeptidase activity assessed as tetra-aspartate-tri-aspartate multimer containing D-Ala4 to D-Asp-L-Lys3 cross links at 128 ug/ml by mass spectrometry; parameters: scale not given: the % may be the effect or the level left
Enterococcus faecium [12] = assay: Inhibition of Enterococcus faecium M512 PBP5fm transpeptidase activity assessed as tetra -aspartate-tetra multimer containing D-Ala4 to D-Asp-L-Lys3 cross links at 128 ug/ml by mass spectrometry; parameters: scale not given: the % may be the effect or the level left
Enterococcus faecium [13] = assay: Inhibition of Enterococcus faecium M512 PBP5fm transpeptidase activity assessed as tetra -aspartate-penta multimer containing D-Ala4 to D-Asp-L-Lys3 cross links at 128 ug/ml by mass spectrometry; parameters: scale not given: the % may be the effect or the level left
Enterococcus faecium [14] = assay: Inhibition of Enterococcus faecium M512 PBP5fm transpeptidase activity assessed as tetra -aspartate-tetra-aspartate multimer containing D-Ala4 to D-Asp-L-Lys3 cross links at 128 ug/ml by mass spectrometry; parameters: scale not given: the % may be the effect or the level left
Enterococcus faecium [15] = assay: Inhibition of Enterococcus faecium M512 PBP5fm transpeptidase activity assessed as tetra -aspartate-penta-aspartate multimer containing D-Ala4 to D-Asp-L-Lys3 cross links at 128 ug/ml by mass spectrometry; parameters: scale not given: the % may be the effect or the level left
Enterococcus faecium [16] = assay: Inhibition of Enterococcus faecium M512 PBP5fm transpeptidase activity assessed as tetra -aspartate-tetra -aspartate-tri-aspartate multimer containing D-Ala4 to D-Asp-L-Lys3 cross links at 128 ug/ml by mass spectrometry; parameters: scale not given: the % may be the effect or the level left
Enterococcus faecium [17] = assay: Inhibition of Enterococcus faecium M512 PBP5fm transpeptidase activity assessed as tetra-aspartate-tetra-aspartate-tetra-aspartate multimer containing D-Ala4 to D-Asp-L-Lys3 cross links at 128 ug/ml by mass spectrometry; parameters: scale not given: the % may be the effect or the level left
Enterococcus faecium [18] = assay: Inhibition of Enterococcus faecium M512 PBP5fm transpeptidase activity assessed as tetra-aspartate-tetra-aspartate-penta-aspartate multimer containing D-Ala4 to D-Asp-L-Lys3 cross links at 128 ug/ml by mass spectrometry; parameters: scale not given: the % may be the effect or the level left
Enterococcus faecium [19] = assay: Inhibition of Enterococcus faecium LD transpeptidase assessed as enzyme aduct at 3.4 uM by mass spectrometry
Enterococcus faecium [20] = assay: Inhibition of Enterococcus faecium LD-transpeptidase assessed by formation of Ac2-L-Lys-D-[14C]Ala from Ac2-L-Lys-D-Ala and D-[14C]Ala at 0.5 ug/ml
Enterococcus faecium [21] = assay: Inhibition of Enterococcus faecium M512 LDtfm transpeptidase activity assessed as tri-aspartate tri multimer containing L-Lys3 to D-Asp-L-Lys3 cross links at 8 ug/ml; parameters: scale not given: the % may be the effect or the level left
Enterococcus faecium [22] = assay: Inhibition of Enterococcus faecium M512 LDtfm transpeptidase activity assessed as tri-aspartate-tri-aspartate multimer containing L-Lys3 to D-Asp-L-Lys3 cross links at 8 ug/ml; parameters: scale not given: the % may be the effect or the level left
Enterococcus faecium [23] = assay: Inhibition of Enterococcus faecium M512 LDtfm transpeptidase activity assessed as tri-aspartate-tetra multimer containing L-Lys3 to D-Asp-L-Lys3 cross links at 8 ug/ml; parameters: scale not given: the % may be the effect or the level left
Enterococcus faecium [24] = assay: Inhibition of Enterococcus faecium M512 LDtfm transpeptidase activity assessed as tri-aspartate-tetra-aspartate multimer containing L-Lys3 to D-Asp-L-Lys3 cross links at 8 ug/ml; parameters: scale not given: the % may be the effect or the level left
Enterococcus faecium [25] = assay: Inhibition of Enterococcus faecium M512 LDtfm transpeptidase activity assessed as tri-aspartate-penta multimer containing L-Lys3 to D-Asp-L-Lys3 cross links at 8 ug/ml; parameters: scale not given: the % may be the effect or the level left
Enterococcus faecium [26] = assay: Inhibition of Enterococcus faecium M512 LDtfm transpeptidase activity assessed as tri-aspartate-penta-aspartate multimer containing L-Lys3 to D-Asp-L-Lys3 cross links at 8 ug/ml; parameters: scale not given: the % may be the effect or the level left
Enterococcus faecium [27] = assay: Inhibition of Enterococcus faecium M512 LDtfm transpeptidase activity assessed as tri-aspartate-tri-aspartate-tri-aspartate multimer containing L-Lys3 to D-Asp-L-Lys3 cross links at 8 ug/ml; parameters: scale not given: the % may be the effect or the level left
Enterococcus faecium [28] = assay: Inhibition of Enterococcus faecium M512 LDtfm transpeptidase activity assessed as tri-aspartate-tri-aspartate-tetra multimer containing L-Lys3 to D-Asp-L-Lys3 cross links at 8 ug/ml; parameters: scale not given: the % may be the effect or the level left
Enterococcus faecium [29] = assay: Inhibition of Enterococcus faecium M512 LDtfm transpeptidase activity assessed as tri-aspartate-tri-aspartate-tetra-aspartate multimer containing L-Lys3 to D-Asp-L-Lys3 cross links at 8 ug/ml; parameters: scale not given: the % may be the effect or the level left
Enterococcus faecium [30] = assay: Inhibition of Enterococcus faecium M512 LDtfm transpeptidase activity assessed as tri-aspartate-tri-aspartate-penta-aspartate multimer containing L-Lys3 to D-Asp-L-Lys3 cross links at 8 ug/ml; parameters: scale not given: the % may be the effect or the level left

| SMILES | MIC (Enterococcus faecium [1]) [µg/mL] | MIC (Enterococcus faecium [2]) [µg/mL] | EC50 [3] [µg/mL] | Activity (Enterococcus faecium [4]) [%] | Activity (Enterococcus faecium [5]) [%] | Activity (Enterococcus faecium [6]) [%] | Activity (Enterococcus faecium [7]) [%] | Activity (Enterococcus faecium [8]) [%] | Activity (Enterococcus faecium [9]) [%] | Activity (Enterococcus faecium [20]) | further results |
| --- | --- | --- | --- | --- | --- | --- | --- | --- | --- | --- | --- |
| CC(O)[C@H]1C(=O)N2C(C(=O)O)=C(SCCNC=N)C[C@H]12 (single isomer, unassigned) [IMIPENEM ANHYDROUS] | 0.25 (≈ 0.835 µM) | 0.5 (≈ 1.67 µM) | 0.077 (≈ 0.257 µM) | 1.4 | 2.2 | 4.5 | 2.8 | 3 | 5.4 | Active | Activity (Enterococcus faecium [10]): 0.9%; Activity (Enterococcus faecium [11]): 23.8%; Activity (Enterococcus faecium [12]): 1.7%; Activity (Enterococcus faecium [13]): 0.8%; Activity (Enterococcus faecium [14]): 12%; Activity (Enterococcus faecium [15]): 11.9%; Activity (Enterococcus faecium [16]): 24.7%; Activity (Enterococcus faecium [17]): 1.6%; Activity (Enterococcus faecium [18]): 3.3%; Activity (Enterococcus faecium [19]): Active |
| CC(O)[C@H]1C(=O)N2C(C(=O)O)=C(S[C@@H]3CN[C@H](C(=O)N(C)C)C3)[C@H](C)[C@H]12 (single isomer, unassigned) [MEROPENEM] | 1 (≈ 2.61 µM) | 8 (≈ 20.9 µM) |  |  |  |  |  |  |  |  |  |
| CC1(C)S[C@@H]2[C@H](NC(=O)[C@H](N)c3ccccc3)C(=O)N2[C@H]1C(=O)O [AMPICILLIN] | 0.06 (≈ 0.172 µM) | > 2000 | > 3200 | 7 | 0.5 | 18.4 | 1.3 | 10.6 | 3.7 |  | Activity (Enterococcus faecium [21]): 2.8%; Activity (Enterococcus faecium [22]): 18.7%; Activity (Enterococcus faecium [23]): 3.7%; Activity (Enterococcus faecium [24]): 6.8%; Activity (Enterococcus faecium [25]): 6.8%; Activity (Enterococcus faecium [26]): 6.1%; Activity (Enterococcus faecium [27]): 6.1%; Activity (Enterococcus faecium [28]): 3%; Activity (Enterococcus faecium [29]): 2.7%; Activity (Enterococcus faecium [30]): 1.8% |
| CO/N=C(\C(=O)N[C@@H]1C(=O)N2C(C(=O)O)=C(CSc3nc(=O)c(O)nn3C)CS[C@H]12)c1csc(N)n1 [CEFTRIAXONE] | 2 (≈ 3.61 µM) | 128 (≈ 231 µM) | 19 (≈ 34.3 µM) |  |  |  |  |  |  | 200 µg/mL |  |
| CC1C(S[C@@H]2CN[C@H](C(=O)Nc3cccc(C(=O)O)c3)C2)=C(C(=O)O)N2C(=O)[C@H]([C@H](C)O)[C@@H]12 (some centres not stated) [ETRAPENEM] | 1 (≈ 2.1 µM) | 16 (≈ 33.6 µM) |  |  |  |  |  |  |  |  |  |
